Assay results reported in patent US10807944B2, “HDAC inhibitor compounds and methods of treatment” (priority 2014, dated 2020).

tested on: HCT116 cells; test: Histone acetylation by Western blotting; type: cell-based; conditions: HCT116, 0.5 μM, 24 h (FIG. 1B)

Structure (SMILES) | inhibition of cellular HDACs (H4K5ac, H3K18ac)
CCCCNNC(=O)c1ccc(N(C)C)cc1 [RLS2-131, N′-butyl-4-(dimethylamino)benzohydrazide] | potent inhibition of cellular HDACs

same assay, conditions: HCT116, 1 h exposure; TSA 0.2 μM, others 2 μM (FIG. 1A)

Structure (SMILES) | accumulation of acetylated histones
CC(/C=C/C(=O)NO)=C\[C@@H](C)C(=O)c1ccc(N(C)C)cc1 [TSA, Trichostatin A, reference compound] | strongly induced acetylation at some sites but weakly at other sites

tested on: HepG2 cells; test: cells; conditions: Homo sapiens, HepG2, read-out: IC50 Control

Structure (SMILES) | IC50 [nM]
CCCCNNC(=O)c1ccc(N(C)C)cc1 [RLS2-131, N′-butyl-4-(dimethylamino)benzohydrazide] | 1500

same assay, conditions: Homo sapiens, HepG2, read-out: IC50 HDAC1 shRNA

Structure (SMILES) | IC50 [nM]
CCCCNNC(=O)c1ccc(N(C)C)cc1 [RLS2-131, N′-butyl-4-(dimethylamino)benzohydrazide] | 1800

same assay, conditions: Homo sapiens, HepG2, read-out: IC50 HDAC2 shRNA

Structure (SMILES) | IC50 [nM]
CCCCNNC(=O)c1ccc(N(C)C)cc1 [RLS2-131, N′-butyl-4-(dimethylamino)benzohydrazide] | 2000

same assay, conditions: Homo sapiens, HepG2, read-out: IC50 HDAC3 shRNA

Structure (SMILES) | IC50 [nM]
CCCCNNC(=O)c1ccc(N(C)C)cc1 [RLS2-131, N′-butyl-4-(dimethylamino)benzohydrazide] | 200

tested on: not given; test: not given; conditions: 4b, 50 mg/kg dosed orally, ref (4); cited from earlier work

Structure (SMILES) | AUC [µM·h] | Cmax [nM] | T1/2 [h] | Tmax [h]
Nc1ccccc1NC(=O)CCCCCC(=O)Nc1ccccc1 [Compound 4b] | 1.08 | 1130 | 2.76 | 0.25

biological target: HDAC6 (Homo sapiens (Human), UniProt Q9UBN7); test: HDAC6 in vitro inhibition, dose response; type: biochemical; conditions: Table 2; read-out: HDAC 6 IC50
Sequence (Q9UBN7 whole entry): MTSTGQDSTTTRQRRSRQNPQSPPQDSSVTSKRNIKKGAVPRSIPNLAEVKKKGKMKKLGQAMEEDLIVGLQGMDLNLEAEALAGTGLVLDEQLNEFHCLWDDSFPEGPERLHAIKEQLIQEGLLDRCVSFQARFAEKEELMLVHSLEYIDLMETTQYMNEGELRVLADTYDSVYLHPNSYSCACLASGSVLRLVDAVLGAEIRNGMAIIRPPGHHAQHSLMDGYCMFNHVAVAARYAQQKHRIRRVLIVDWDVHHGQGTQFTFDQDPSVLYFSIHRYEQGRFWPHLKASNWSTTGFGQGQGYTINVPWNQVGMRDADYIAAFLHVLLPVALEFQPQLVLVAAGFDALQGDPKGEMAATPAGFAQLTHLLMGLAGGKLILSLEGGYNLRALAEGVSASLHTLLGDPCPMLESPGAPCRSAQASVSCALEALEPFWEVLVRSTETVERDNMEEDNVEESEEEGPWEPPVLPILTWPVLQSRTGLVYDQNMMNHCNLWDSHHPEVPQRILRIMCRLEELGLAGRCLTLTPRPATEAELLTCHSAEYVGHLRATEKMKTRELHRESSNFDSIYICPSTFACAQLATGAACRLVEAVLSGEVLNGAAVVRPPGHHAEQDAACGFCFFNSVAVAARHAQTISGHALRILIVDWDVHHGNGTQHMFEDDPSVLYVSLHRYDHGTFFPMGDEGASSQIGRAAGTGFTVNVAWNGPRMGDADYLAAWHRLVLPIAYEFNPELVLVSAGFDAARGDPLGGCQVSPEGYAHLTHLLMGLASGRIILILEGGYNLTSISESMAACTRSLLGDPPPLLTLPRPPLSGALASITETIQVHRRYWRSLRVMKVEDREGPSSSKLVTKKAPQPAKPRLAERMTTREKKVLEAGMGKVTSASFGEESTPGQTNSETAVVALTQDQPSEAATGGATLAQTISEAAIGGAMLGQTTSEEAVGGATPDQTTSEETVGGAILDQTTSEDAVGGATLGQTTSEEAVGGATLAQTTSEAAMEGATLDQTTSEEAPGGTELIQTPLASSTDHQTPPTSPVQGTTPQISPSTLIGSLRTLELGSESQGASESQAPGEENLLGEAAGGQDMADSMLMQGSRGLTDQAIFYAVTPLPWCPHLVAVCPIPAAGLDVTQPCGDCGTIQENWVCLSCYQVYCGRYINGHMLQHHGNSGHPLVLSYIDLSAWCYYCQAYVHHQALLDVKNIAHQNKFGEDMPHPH

IC50 [nM] | Structure (SMILES)
9 | CCCCNNC(=O)c1ccc(CN=[N+]=[N-])cc1 [RLS2-312, 4-(azidomethyl)-N′-butylbenzohydrazide]
6500 | CCCCNNC(=O)c1ccc(-c2cc(C(=O)OCC)ccc2F)cc1 [SR-4373, ethyl 4′-(2-butylhydrazinecarbonyl)-6-fluorobiphenyl-3-carboxylate]
45 | CCCCNNC(=O)c1ccc(C(C)(C)C)cc1 [RLS2-211, 4-tert-butyl-N′-butylbenzohydrazide]
3700 | CCCCNNC(=O)c1ccc(-c2cc(C)cc(F)c2)cc1 [SR-4372, N′-butyl-3′-fluoro-5′-methylbiphenyl-4-carbohydrazide]

Structure (SMILES) | IC50 [nM]
CCCCNNC(=O)c1ccc(N(C)C)cc1 [RLS2-131, N′-butyl-4-(dimethylamino)benzohydrazide] | > 50000

biological target: HDAC2 (Homo sapiens (Human), UniProt Q92769); test: HDAC2 in vitro inhibition, dose response; type: biochemical; conditions: Table 2; read-out: HDAC 2 IC50
Sequence (Q92769 whole entry): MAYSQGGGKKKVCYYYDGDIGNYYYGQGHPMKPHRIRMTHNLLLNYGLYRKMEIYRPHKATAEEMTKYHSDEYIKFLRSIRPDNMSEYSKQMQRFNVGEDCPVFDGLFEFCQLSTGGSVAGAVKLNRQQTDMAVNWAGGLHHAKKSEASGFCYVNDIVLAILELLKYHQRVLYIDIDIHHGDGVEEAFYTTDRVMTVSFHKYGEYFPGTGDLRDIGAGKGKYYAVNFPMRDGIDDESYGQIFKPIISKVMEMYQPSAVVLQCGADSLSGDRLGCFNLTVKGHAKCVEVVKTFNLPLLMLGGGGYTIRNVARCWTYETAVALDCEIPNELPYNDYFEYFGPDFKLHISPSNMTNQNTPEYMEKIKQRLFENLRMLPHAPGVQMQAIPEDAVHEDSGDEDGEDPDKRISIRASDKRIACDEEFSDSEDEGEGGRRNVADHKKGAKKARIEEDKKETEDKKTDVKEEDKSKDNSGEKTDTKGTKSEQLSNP

IC50 [nM] | Structure (SMILES)
2520 | CCCCNNC(=O)c1ccc(OC)cc1 [RLS2-126, N′-butyl-4-methoxybenzohydrazide]
7650 | O=C(NNCCC1CCCC1)c1ccc(Br)cc1 [RLS2-219, 4-bromo-N′-(2-cyclopentylethyl)benzohydrazide]
16100 | CCCCCCNNC(=O)c1ccc(Br)cc1 [RLS2-284, 4-bromo-N′-hexylbenzohydrazide]
5920 | CCCCNNC(=O)c1ccc2ccccc2c1 [RLS2-238, N′-butyl-2-naphthohydrazide]
527 | CCCCNNC(=O)c1ccc(CN=[N+]=[N-])cc1 [RLS2-312, 4-(azidomethyl)-N′-butylbenzohydrazide]
> 50000 | O=C(NNCCCC1CCCC1)c1ccc(Br)cc1 [RLS2-257, 4-bromo-N′-(3-cyclopentylpropyl)benzohydrazide]
> 50000 | O=C(NNCC1CCCC1)c1ccc2ccccc2c1 [RLS2-254, N′-(cyclopentylmethyl)-2-naphthohydrazide]
2820 | CCCCCCNNC(=O)c1ccc(C(C)(C)C)cc1 [RLS2-283, 4-tert-butyl-N′-hexylbenzohydrazide]
13700 | CCCCNNC(=O)c1ccncc1 [RLS2-290, N′-butylisonicotinohydrazide]
5820 | CCCCNNC(=O)c1ccc(Cl)cc1 [RLS2-133, N′-butyl-4-chlorobenzohydrazide]
9090 | CCCCNNC(=O)c1ccc(OC(F)(F)F)cc1 [RLS2-124, N′-butyl-4-(trifluoromethoxy)benzohydrazide]
47000 | CCCCNNC(=O)c1cccc(I)c1 [RLS3-5, N′-butyl-3-iodobenzohydrazide]
> 50000 | CC(C)NNC(=O)c1ccccc1 [RLS2-185, N′-isopropylbenzohydrazide]
1040 | CCCCNNC(=O)c1ccc(C(C)(C)C)cc1 [RLS2-211, 4-tert-butyl-N′-butylbenzohydrazide]
3880 | CCCNNC(=O)c1ccc(Br)cc1 [RLS2-137, 4-bromo-N′-propylbenzohydrazide]
1200 | CCCCNNC(=O)c1ccc(-c2cc(C)cc(F)c2)cc1 [SR-4372, N′-butyl-3′-fluoro-5′-methylbiphenyl-4-carbohydrazide]

Structure (SMILES) | IC50 [nM]
CCCCNNC(=O)c1ccc(OC)c(OC)c1 [RLS3-20] | 30000
CCCCNNC(=O)c1ccc(-c2ccccc2)cc1 [RLS3-43, N′-butylbiphenyl-4-carbohydrazide] | 800
CCCCNNC(=O)c1ccc(N(C)C)cc1 [RLS2-131, N′-butyl-4-(dimethylamino)benzohydrazide] | 880

biological target: HDAC1 (Homo sapiens (Human), UniProt Q13547); test: HDAC1 in vitro inhibition, dose response; type: biochemical; conditions: Table 2; read-out: HDAC 1 IC50
Sequence (Q13547 whole entry): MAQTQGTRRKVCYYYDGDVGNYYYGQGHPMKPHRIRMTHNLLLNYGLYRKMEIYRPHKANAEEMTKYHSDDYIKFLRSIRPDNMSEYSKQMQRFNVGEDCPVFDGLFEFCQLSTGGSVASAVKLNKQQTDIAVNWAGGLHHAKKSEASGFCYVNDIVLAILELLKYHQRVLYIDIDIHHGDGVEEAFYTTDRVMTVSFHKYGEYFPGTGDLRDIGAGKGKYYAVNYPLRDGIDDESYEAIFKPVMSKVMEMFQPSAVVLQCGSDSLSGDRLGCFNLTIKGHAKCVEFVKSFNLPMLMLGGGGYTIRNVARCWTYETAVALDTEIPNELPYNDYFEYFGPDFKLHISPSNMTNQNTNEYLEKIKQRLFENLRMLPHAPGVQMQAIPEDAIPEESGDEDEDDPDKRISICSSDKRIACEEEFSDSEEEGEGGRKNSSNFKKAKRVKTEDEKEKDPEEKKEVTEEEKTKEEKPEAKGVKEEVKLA

IC50 [nM] | Structure (SMILES)
1910 | CCCCNNC(=O)c1ccc(OC)cc1 [RLS2-126, N′-butyl-4-methoxybenzohydrazide]
7400 | O=C(NNCCC1CCCC1)c1ccc(Br)cc1 [RLS2-219, 4-bromo-N′-(2-cyclopentylethyl)benzohydrazide]
10300 | CCCCCCNNC(=O)c1ccc(Br)cc1 [RLS2-284, 4-bromo-N′-hexylbenzohydrazide]
4300 | CCCCNNC(=O)c1ccc2ccccc2c1 [RLS2-238, N′-butyl-2-naphthohydrazide]
320 | CCCCNNC(=O)c1ccc(CN=[N+]=[N-])cc1 [RLS2-312, 4-(azidomethyl)-N′-butylbenzohydrazide]
> 50000 | O=C(NNCCCC1CCCC1)c1ccc(Br)cc1 [RLS2-257, 4-bromo-N′-(3-cyclopentylpropyl)benzohydrazide]
> 50000 | O=C(NNCC1CCCC1)c1ccc2ccccc2c1 [RLS2-254, N′-(cyclopentylmethyl)-2-naphthohydrazide]
2250 | CCCCCCNNC(=O)c1ccc(C(C)(C)C)cc1 [RLS2-283, 4-tert-butyl-N′-hexylbenzohydrazide]
1300 | CCCCNNC(=O)c1ccc(-c2cc(C(=O)OCC)ccc2F)cc1 [SR-4373, ethyl 4′-(2-butylhydrazinecarbonyl)-6-fluorobiphenyl-3-carboxylate]
4280 | CCCCNNC(=O)c1ccncc1 [RLS2-290, N′-butylisonicotinohydrazide]
3750 | CCCCNNC(=O)c1ccc(Cl)cc1 [RLS2-133, N′-butyl-4-chlorobenzohydrazide]
8860 | CCCCNNC(=O)c1ccc(OC(F)(F)F)cc1 [RLS2-124, N′-butyl-4-(trifluoromethoxy)benzohydrazide]
31400 | CCCCNNC(=O)c1cccc(I)c1 [RLS3-5, N′-butyl-3-iodobenzohydrazide]
> 50000 | CC(C)NNC(=O)c1ccccc1 [RLS2-185, N′-isopropylbenzohydrazide]
190 | CCCCNNC(=O)c1ccc(C(C)(C)C)cc1 [RLS2-211, 4-tert-butyl-N′-butylbenzohydrazide]
1700 | CCCNNC(=O)c1ccc(Br)cc1 [RLS2-137, 4-bromo-N′-propylbenzohydrazide]
760 | CCCCNNC(=O)c1ccc(-c2cc(C)cc(F)c2)cc1 [SR-4372, N′-butyl-3′-fluoro-5′-methylbiphenyl-4-carbohydrazide]

Structure (SMILES) | IC50 [nM]
CCCCNNC(=O)c1ccc(OC)c(OC)c1 [RLS3-20] | > 50000
CCCCNNC(=O)c1ccc(-c2ccccc2)cc1 [RLS3-43, N′-butylbiphenyl-4-carbohydrazide] | 90
CCCCNNC(=O)c1ccc(N(C)C)cc1 [RLS2-131, N′-butyl-4-(dimethylamino)benzohydrazide] | 230

tested on: HepG2 cells; test: not given; conditions: HepG2

Structure (SMILES) | potency against HepG2 relative to UF010 [fold]
CCCCNNC(=O)c1ccc(N(C)C)cc1 [RLS2-131, N′-butyl-4-(dimethylamino)benzohydrazide] | 3

tested on: HCT116 and A549 cells; test: Acetylation of non-histone proteins by Western blotting; type: cell-based; conditions: HCT116 and A549, 1 h; TSA 0.2 μM, UF010 2 μM

Structure (SMILES) | α-tubulin acetylation
CC(/C=C/C(=O)NO)=C\[C@@H](C)C(=O)c1ccc(N(C)C)cc1 [TSA, Trichostatin A, reference compound] | dramatically increased

biological target: HDAC3 (Homo sapiens (Human), UniProt O15379); test: HDAC3 in vitro inhibition, dose response; type: biochemical; conditions: Table 2; read-out: HDAC 3 IC50
Sequence (O15379 whole entry): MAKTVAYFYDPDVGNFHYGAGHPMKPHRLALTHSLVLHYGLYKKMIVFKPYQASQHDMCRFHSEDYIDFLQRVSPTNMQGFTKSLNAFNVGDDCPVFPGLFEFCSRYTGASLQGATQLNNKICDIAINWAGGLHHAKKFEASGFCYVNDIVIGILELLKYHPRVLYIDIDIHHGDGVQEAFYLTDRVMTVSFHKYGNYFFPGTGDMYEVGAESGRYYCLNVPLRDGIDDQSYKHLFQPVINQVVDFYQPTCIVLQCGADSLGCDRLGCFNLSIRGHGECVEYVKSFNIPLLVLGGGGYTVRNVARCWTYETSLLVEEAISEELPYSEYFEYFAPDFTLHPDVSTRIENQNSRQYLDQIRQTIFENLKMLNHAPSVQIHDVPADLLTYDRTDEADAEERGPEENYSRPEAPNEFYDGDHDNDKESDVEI
Sequence (Q9Y618 395-489 partner): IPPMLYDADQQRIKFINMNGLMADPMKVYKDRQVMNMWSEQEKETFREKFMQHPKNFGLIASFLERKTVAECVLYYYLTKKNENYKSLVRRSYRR

IC50 [nM] | Structure (SMILES)
430 | CCCCNNC(=O)c1ccc(OC)cc1 [RLS2-126, N′-butyl-4-methoxybenzohydrazide]
1080 | O=C(NNCCC1CCCC1)c1ccc(Br)cc1 [RLS2-219, 4-bromo-N′-(2-cyclopentylethyl)benzohydrazide]
20000 | CCCCCCNNC(=O)c1ccc(Br)cc1 [RLS2-284, 4-bromo-N′-hexylbenzohydrazide]
150 | CCCCNNC(=O)c1ccc(CN=[N+]=[N-])cc1 [RLS2-312, 4-(azidomethyl)-N′-butylbenzohydrazide]
> 50000 | O=C(NNCCCC1CCCC1)c1ccc(Br)cc1 [RLS2-257, 4-bromo-N′-(3-cyclopentylpropyl)benzohydrazide]
> 50000 | O=C(NNCC1CCCC1)c1ccc2ccccc2c1 [RLS2-254, N′-(cyclopentylmethyl)-2-naphthohydrazide]
8080 | CCCCCCNNC(=O)c1ccc(C(C)(C)C)cc1 [RLS2-283, 4-tert-butyl-N′-hexylbenzohydrazide]
420 | CCCCNNC(=O)c1ccc(-c2cc(C(=O)OCC)ccc2F)cc1 [SR-4373, ethyl 4′-(2-butylhydrazinecarbonyl)-6-fluorobiphenyl-3-carboxylate]
1400 | CCCCNNC(=O)c1ccncc1 [RLS2-290, N′-butylisonicotinohydrazide]
950 | CCCCNNC(=O)c1ccc(Cl)cc1 [RLS2-133, N′-butyl-4-chlorobenzohydrazide]
1350 | CCCCNNC(=O)c1ccc(OC(F)(F)F)cc1 [RLS2-124, N′-butyl-4-(trifluoromethoxy)benzohydrazide]
> 50000 | CCCCNNC(=O)c1cccc(I)c1 [RLS3-5, N′-butyl-3-iodobenzohydrazide]
> 50000 | CC(C)NNC(=O)c1ccccc1 [RLS2-185, N′-isopropylbenzohydrazide]
70 | CCCCNNC(=O)c1ccc(C(C)(C)C)cc1 [RLS2-211, 4-tert-butyl-N′-butylbenzohydrazide]
220 | CCCNNC(=O)c1ccc(Br)cc1 [RLS2-137, 4-bromo-N′-propylbenzohydrazide]
380 | CCCCNNC(=O)c1ccc(-c2cc(C)cc(F)c2)cc1 [SR-4372, N′-butyl-3′-fluoro-5′-methylbiphenyl-4-carbohydrazide]

Structure (SMILES) | IC50 [nM]
CCCCNNC(=O)c1ccc(OC)c(OC)c1 [RLS3-20] | 13800
CCCCNNC(=O)c1ccc(N(C)C)cc1 [RLS2-131, N′-butyl-4-(dimethylamino)benzohydrazide] | 120

biological target: HDAC8 (Homo sapiens (Human), UniProt Q9BY41); test: HDAC8 in vitro inhibition, dose response; type: biochemical; conditions: Table 2; read-out: HDAC 8 IC50
Sequence (Q9BY41 whole entry): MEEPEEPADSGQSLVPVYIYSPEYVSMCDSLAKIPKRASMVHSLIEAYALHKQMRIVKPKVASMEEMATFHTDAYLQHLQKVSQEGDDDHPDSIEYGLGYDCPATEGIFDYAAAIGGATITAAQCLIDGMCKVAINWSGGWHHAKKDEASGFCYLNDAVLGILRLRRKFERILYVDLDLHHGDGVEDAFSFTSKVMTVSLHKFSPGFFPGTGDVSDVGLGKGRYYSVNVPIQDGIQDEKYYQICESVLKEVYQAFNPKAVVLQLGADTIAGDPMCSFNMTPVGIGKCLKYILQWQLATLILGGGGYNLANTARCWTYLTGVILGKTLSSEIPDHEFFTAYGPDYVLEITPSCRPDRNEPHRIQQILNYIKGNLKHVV

Structure (SMILES) | IC50 [nM]
CCCCNNC(=O)c1ccc(-c2ccccc2)cc1 [RLS3-43, N′-butylbiphenyl-4-carbohydrazide] | 2430
CCCCNNC(=O)c1ccc(C(C)(C)C)cc1 [RLS2-211, 4-tert-butyl-N′-butylbenzohydrazide] | 45
CCCCNNC(=O)c1ccc(N(C)C)cc1 [RLS2-131, N′-butyl-4-(dimethylamino)benzohydrazide] | 13100
CCCCNNC(=O)c1ccc(-c2cc(C)cc(F)c2)cc1 [SR-4372, N′-butyl-3′-fluoro-5′-methylbiphenyl-4-carbohydrazide] | 3600
